Results as given in patent publication US20260364145A1, “MODIFIED CAVEOLIN-1 PEPTIDE FORMULATIONS AND METHODS OF MANUFACTURING AND USE THEREOF” (REIN THERAPEUTICS, INC., priority 2023, published 2026).
Where “and” joins values, the source holds several entries; their conditions need not be identical. Identical values can stand only once. Like-named read-outs stand apart in the source and are kept apart here. Non-standard residues stand in square brackets, D forms with d. Residues, ends and D or L forms follow the SMILES beside them.

Experiments:
[1] = APi2355 concentrations in BALF and tissues at 42 days post-treatment (LC/MS/MS); type: in vivo, rat (Sprague Dawley); conditions: for BALF concentration / Heart concentration / Kidney concentration / Liver concentration / Lung concentration / Skin concentration: SC 2.0 mg/kg, listed as APi2335, 2 mg/kg, 60480 min; for concentration at 1008 h: rat, sc, 2 mg/kg
Aqueous solubility = type: physicochemical
[2] = Plasma pharmacokinetics after single-dose subcutaneous administration; type: in vivo, rat (Sprague Dawley); conditions: for plasma concentration / concentration at 1 h / concentration at 2 h / concentration at 4 h / concentration at 8 h / concentration at 24 h / concentration at 48 h / concentration at 96 h / concentration at 168 h / concentration at 240 h / concentration at 336 h / concentration at 528 h / concentration at 696 h / concentration at 840 h / concentration at 1008 h: SC 2.0 mg/kg, 2 mg/kg; for concentration at 1 h / concentration at 2 h / concentration at 4 h / concentration at 8 h / concentration at 24 h / concentration at 48 h / concentration at 96 h / concentration at 168 h / concentration at 240 h / concentration at 336 h / concentration at 528 h / concentration at 696 h / concentration at 840 h / concentration at 1008 h: rat, plasma, sc
[3] = individual rats, Group 1, MSP #3 (W/O/W)
[4] = individual rats, Group 2, MSP #5 (S/O/W)

**Q.** What does the source list for `CC(=O)N[C@H](C)C(=O)N[C@H](C)C(=O)N[C@@H](CCC(=O)O)C(=O)NCC(=O)N[C@@H](CCCCN)C(=O)N[C@@H](C)C(=O)N[C@@H](CO)C(=O)N[C@@H](Cc1ccccc1)C(=O)N[C@H](C(=O)N[C@H](C(=O)N[C@@H](Cc1ccccc1)C(=O)N[C@H](C(=O)N[C@H](C(=O)N[C@H](C(=O)N[C@@H](CCCCN)C(=O)NCC(=O)N[C@@H](CO)C(=O)N[C@H](C)C(=O)N[C@H](C)C(N)=O)[C@@H](C)O)C(C)C)[C@@H](C)O)[C@@H](C)O)[C@@H](C)O` [APi2355, Ac-aaEGKASFTTFTVTKGSaa-NH2] (Ac-[dA][dA]EGKASFTTFTVTKGS[dA][dA]-NH2)?
**A.** BALF concentration [1, 3]: 5.67 ng/mL and 1.45 ng/mL and 1.89 ng/mL and 1.47 ng/mL and 0.63 ng/mL and 1.53 ng/mL; Heart concentration [1, 3]: 10.46 ng/g and 13.81 ng/g and 8.97 ng/g and 11.09 ng/g and 3.41 ng/g and 8.39 ng/g; Kidney concentration [1, 3]: 63.91 ng/g and 53.55 ng/g and 30.02 ng/g and 62.91 ng/g and 57.32 ng/g and 66.29 ng/g; Liver concentration [1, 3]: 5.46 ng/g and 1.23 ng/g and 0.69 ng/g and 1.85 ng/g and 3.65 ng/g and 2.86 ng/g; Lung concentration [1, 3]: 37.40 ng/g and 29.17 ng/g and 36.51 ng/g and 62.92 ng/g and 36.86 ng/g and 38.80 ng/g; BALF concentration [1, 4]: 0.45 ng/mL and 0.23 ng/mL and 0.70 ng/mL and 0.52 ng/mL and 4.10 ng/mL and 2.17 ng/mL and 0.71 ng/mL; Heart concentration [1, 4]: 14.37 ng/g and 14.17 ng/g and 9.32 ng/g and 7.53 ng/g and 15.87 ng/g and 12.57 ng/g and 16.18 ng/g; Kidney concentration [1, 4]: 31.78 ng/g and 41.08 ng/g and 52.67 ng/g and 38.43 ng/g and 33.98 ng/g and 36.28 ng/g; Liver concentration [1, 4]: 8.34 ng/g and 8.26 ng/g and 0.24 ng/g and 0.47 ng/g and 1.33 ng/g and 4.81 ng/g and 5.22 ng/g; Lung concentration [1, 4]: 35.15 ng/g and 31.08 ng/g and 28.00 ng/g and 53.76 ng/g and 47.20 ng/g and 35.92 ng/g; Skin concentration ([1]; injection site skin, individual rats, Group 1, MSP #3 (W/O/W)): 29.72 ng/g and 13.12 ng/g and 14.02 ng/g and 20.81 ng/g and 2.28 ng/g and 31.92 ng/g; Skin concentration ([1]; injection site skin, individual rats, Group 2, MSP #5 (S/O/W)): 4.08 ng/g and 4.10 ng/g and 2.92 ng/g and 3.69 ng/g and 3.40 ng/g and 14.71 ng/g and 1.60 ng/g; concentration at 1008 h ([1]; balf, mean, Group 1, MSP #3 (W/O/W), read-out: BALF concentration, Avg.): 2.11 ng/mL; concentration at 1008 h ([1]; balf, mean, Group 2, MSP #5 (S/O/W), read-out: BALF concentration, Avg.): 1.27 ng/mL; concentration at 1008 h ([1]; heart, mean, Group 1, MSP #3 (W/O/W), read-out: Heart concentration, Avg.): 9.35 ng/g; concentration at 1008 h ([1]; heart, mean, Group 2, MSP #5 (S/O/W), read-out: Heart concentration, Avg.): 12.9 ng/g; concentration at 1008 h ([1]; injection site skin, injection site skin, mean, Group 1, MSP #3 (W/O/W), read-out: Skin concentration, Avg.): 18.6 ng/g; concentration at 1008 h ([1]; injection site skin, injection site skin, mean, Group 2, MSP #5 (S/O/W), read-out: Skin concentration, Avg.): 4.93 ng/g; concentration at 1008 h ([1]; kidney, individual rats, Group 2, MSP #5 (S/O/W), read-out: Kidney concentration): 33.1 ng/g; concentration at 1008 h ([1]; kidney, mean, Group 1, MSP #3 (W/O/W), read-out: Kidney concentration, Avg.): 55.7 ng/g; concentration at 1008 h ([1]; kidney, mean, Group 2, MSP #5 (S/O/W), read-out: Kidney concentration, Avg.): 38.2 ng/g; concentration at 1008 h ([1]; liver, mean, Group 1, MSP #3 (W/O/W), read-out: Liver concentration, Avg.): 2.62 ng/g; concentration at 1008 h ([1]; liver, mean, Group 2, MSP #5 (S/O/W), read-out: Liver concentration, Avg.): 4.09 ng/g; concentration at 1008 h ([1]; lung, individual rats, Group 2, MSP #5 (S/O/W), read-out: Lung concentration): 35.9 ng/g; concentration at 1008 h ([1]; lung, mean, Group 1, MSP #3 (W/O/W), read-out: Lung concentration, Avg.): 40.3 ng/g; concentration at 1008 h ([1]; lung, mean, Group 2, MSP #5 (S/O/W), read-out: Lung concentration, Avg.): 38.1 ng/g; aqueous solubility (Aqueous solubility): relatively low aqueous solubility; plasma concentration ([2]; 1 hr, individual rats, Group 1, MSP #3 (W/O/W), 60 min): 16.02 ng/mL and 311.08 ng/mL; plasma concentration ([2]; 2 hr, individual rats, Group 1, MSP #3 (W/O/W), 120 min): 350.92 ng/mL and 558.41 ng/mL; plasma concentration ([2]; 4 hr, individual rats, Group 1, MSP #3 (W/O/W), 240 min): 501.64 ng/mL and 36.54 ng/mL; plasma concentration ([2]; 8 hr, individual rats, Group 1, MSP #3 (W/O/W), 480 min): 39.13 ng/mL and 12.62 ng/mL; plasma concentration ([2]; 1 day, individual rats, Group 1, MSP #3 (W/O/W), 1440 min): 34.98 ng/mL and 10.17 ng/mL; plasma concentration ([2]; 2 day, individual rats, Group 1, MSP #3 (W/O/W), 2880 min): 3.46 ng/mL; plasma concentration ([2]; 4 day, individual rats, Group 1, MSP #3 (W/O/W), 5760 min): 1.90 ng/mL; plasma concentration ([2]; 7 day, individual rats, Group 1, MSP #3 (W/O/W), 10080 min): 5.66 ng/mL; plasma concentration ([2]; 10 day, individual rats, Group 1, MSP #3 (W/O/W), 14400 min): 2.17 ng/mL; plasma concentration ([2]; 14 day, individual rats, Group 1, MSP #3 (W/O/W), 20160 min): 6.77 ng/mL and 6.89 ng/mL; plasma concentration ([2]; 22 day, individual rats, Group 1, MSP #3 (W/O/W), 31680 min): 7.52 ng/mL and 9.84 ng/mL; plasma concentration ([2]; 29 day, individual rats, Group 1, MSP #3 (W/O/W), 41760 min): 0.91 ng/mL and 1.57 ng/mL; plasma concentration ([2]; 35 day, individual rats, Group 1, MSP #3 (W/O/W), 50400 min): 0.32 ng/mL and 0.48 ng/mL; plasma concentration ([2]; 42 day, individual rats, Group 1, MSP #3 (W/O/W), 60480 min): 0.11 ng/mL and 4.85 ng/mL; fraction of total exposure in the first 3 weeks after SC administration ([2]; first 3 weeks, SC 2.0 mg/kg APi2355): Approximately ⅔; concentration at 1 h ([2]; 1 hr, mean, Group 1, MSP #3 (W/O/W)): 157 ng/mL; concentration at 1 h ([2]; 1 hr, mean, Group 2, MSP #5 (S/O/W)): 175 ng/mL; concentration at 2 h ([2]; 2 hr, mean, Group 1, MSP #3 (W/O/W)): 198 ng/mL; concentration at 2 h ([2]; 2 hr, mean, Group 2, MSP #5 (S/O/W)): 287 ng/mL; concentration at 4 h ([2]; 4 hr, mean, Group 1, MSP #3 (W/O/W)): 185 ng/mL; concentration at 4 h ([2]; 4 hr, mean, Group 2, MSP #5 (S/O/W)): 195 ng/mL; concentration at 8 h ([2]; 8 hr, mean, Group 1, MSP #3 (W/O/W)): 195 ng/mL; concentration at 8 h ([2]; 8 hr, mean, Group 2, MSP #5 (S/O/W)): 130 ng/mL; concentration at 24 h ([2]; 1 day, mean, Group 1, MSP #3 (W/O/W)): 10.7 ng/mL; concentration at 24 h ([2]; 1 day, mean, Group 2, MSP #5 (S/O/W)): 9.53 ng/mL; concentration at 48 h ([2]; 2 day, mean, Group 1, MSP #3 (W/O/W)): 3.2 ng/mL; concentration at 48 h ([2]; 2 day, mean, Group 2, MSP #5 (S/O/W)): 5.23 ng/mL; concentration at 96 h ([2]; 4 day, mean, Group 1, MSP #3 (W/O/W)): 3.22 ng/mL; concentration at 96 h ([2]; 4 day, mean, Group 2, MSP #5 (S/O/W)): 3.69 ng/mL; concentration at 168 h ([2]; 7 day, mean, Group 1, MSP #3 (W/O/W)): 3.34 ng/mL; concentration at 168 h ([2]; 7 day, mean, Group 2, MSP #5 (S/O/W)): 3.37 ng/mL; concentration at 240 h ([2]; 10 day, mean, Group 1, MSP #3 (W/O/W)): 5.22 ng/mL; concentration at 240 h ([2]; 10 day, mean, Group 2, MSP #5 (S/O/W)): 10.5 ng/mL; concentration at 336 h ([2]; 14 day, individual rats, Group 2, MSP #5 (S/O/W), read-out: plasma concentration): 0.98 ng/mL; concentration at 336 h ([2]; 14 day, mean, Group 1, MSP #3 (W/O/W), read-out: plasma concentration, Avg.): 5.41 ng/mL; concentration at 336 h ([2]; 14 day, mean, Group 2, MSP #5 (S/O/W), read-out: plasma concentration, Avg.): 1.14 ng/mL; concentration at 528 h ([2]; 22 day, mean, Group 1, MSP #3 (W/O/W)): 6.35 ng/mL; concentration at 528 h ([2]; 22 day, mean, Group 2, MSP #5 (S/O/W)): 5.26 ng/mL; concentration at 696 h ([2]; 29 day, mean, Group 1, MSP #3 (W/O/W)): 2.53 ng/mL; concentration at 696 h ([2]; 29 day, mean, Group 2, MSP #5 (S/O/W)): 2 ng/mL; concentration at 840 h ([2]; 35 day, mean, Group 1, MSP #3 (W/O/W)): 0.57 ng/mL; concentration at 840 h ([2]; 35 day, mean, Group 2, MSP #5 (S/O/W)): 0.26 ng/mL; concentration at 1008 h ([2]; 42 day, mean, Group 1, MSP #3 (W/O/W)): 1.2 ng/mL; concentration at 1008 h ([2]; 42 day, mean, Group 2, MSP #5 (S/O/W)): 0.72 ng/mL
